Assay results published in patent publication US8318638B2, “Plant activator” (Shiseido Company, Ltd., priority 1999, dated 2012).

Legend:
[1] = system: cyclamen; assay: Growth promotion effect on cyclamen; assay type: in vivo; details: 50 μm aqueous solution sprayed five consecutive days, four months after seeding; observed for 48 days; FIG. 5
Description: Four months after seeding of cyclamen, spraying of a 50 μm specific ketol fatty acid (I) aqueous solution was carried out for five consecutive days. […] The plant width and the number of leaves were both increased.

[2] = system: Begonia sempaflorens; assay: Growth promotion effect on Begonia sempaflorens; assay type: in vivo; details: 80 μm aqueous solution, five consecutive days then once a week for six weeks; four months after last spraying; FIG. 10
Description: (§1) Two weeks after seeding of Begonia sempaflorens, spraying of an 80 μm specific ketol fatty acid (I) aqueous solution was carried out for five consecutive days. Furthermore, three months after the start of the test, spraying of an 80 μm specific ketol fatty acid (I) aqueous solution was carried out for six weeks (once a week). Four months after the last spraying, the leave size was measured.

[3] = system: carpophores of Lentinus edodes; assay: Growth promotion effect on carpophore of Lentinus edodes (Berk.) Singer; assay type: in vivo; details: 5 mL per piece, five days culture at 18° C.
Description: Wood (Quercus serrata) containing hyphae of Lentinus edodes was cut into pieces having a length of about 15 cm, and the pieces were immersed in 10° C. water for 24 hours, after which the pieces were allowed to stand in a container of high humidity. Subsequently, specific ketol fatty acid (I) aqueous solutions (concentration: 0 μm, 3 μM, 30 μm, and 100 μM) were applied through spraying to the resultant pieces (six pieces for each group). Each solution was applied to each group (5 mL for each piece). Subsequently, the carpophores of Lentinus edodes were cultured in the same container at 18° C. under weak light irradiation. This culture was continued for five days, and then growth of the carpophores of Lentinus edodes was observed. FIG. 16 is a photograph showing the carpophores of Lentinus edodes cultured in the groups (note: {circumflex over (1)} application of the specific ketol fatty acid (I) (0 μM), (2) (3 μM), (3). (30 μM), and (4) (100 μM)). The average of the carpophores per piece was 0 in the 0 μM application group, 0.17 in the 3 μM application group, 1.0 in the 30 μM application group, and 1.0 in the 100 μM application group.

[4] = system: Primula melacoides; assay: Growth promotion effect on Primula melacoides; assay type: in vivo; details: 80 μM aqueous solution, five consecutive days then once a week for six weeks; six-and-a-half months after last spraying; FIG. 9
Description: One-and-a-half months after seeding of Primula melacoides, spraying of an 80 μm specific ketol fatty acid (I) aqueous solution was carried out for five consecutive days. Furthermore, four months after the start of the test, spraying of an 80 μM specific ketol fatty acid (I) aqueous solution was carried out for six weeks (once a week). Bolting was not observed at a nutrition growth stage of the Primula melacoides. Six-and-a-half months after the last spraying, the plant width and the leave size were measured.

[5] = system: hyphae of P. citrinopileatus; assay: Effect of proliferating hyphae of P. citrinopileatus Sing.; assay type: cell-based, Pleurotus citrinopileatus Sing.; details: 10 μM, 30 μM, 100 μm in potato-dextrose-agar medium; 37° C.; FIG. 15
Description: A potato-dextrose-agar culture medium was sterilized by use of an autoclave. After the medium was cooled to a temperature at which the agar was not solidified, a 1 mM specific ketol fatty acid (I) aqueous solution which had been sterilized by use of a membrane filter was added to the medium, to thereby prepare four culture media; i.e., a culture medium containing 0 μM of the fatty acid (I), a culture medium containing 10 μM of the fatty acid (I), a culture medium containing 30 μM of the fatty acid (I), and a culture medium containing 100 μm of the fatty acid (I). Each of the culture media was solidified in a 10-cm plate, and then hyphae of P. citrinopileatus (one platinum loop) was inoculated on the medium. Subsequently, the hyphae were cultured at 37° C., and proliferation of the hyphae was observed (10 plates for each group). Proliferation of the hyphae was evaluated on the basis of the average of the diameters of the proliferated hyphae on the plate.

[6] = system: digitalis; assay: Growth promotion effect on digitalis; assay type: in vivo; details: 80 μm aqueous solution, five consecutive days then once a week for six weeks; five-and-a-half months after spraying; FIG. 6
Description: as §1, with “of digitalis,” for “of Begonia sempaflorens,”, “the test;” for “the test,”, “week). Five-and-a-half” for “week). Four”, “the six-week” for “the last”, “the” for “the leave”, “size of leaves and the plant height were” for “size was”

[7] = system: strawberry seedlings; assay: Plant dormancy preventive test on strawberry; assay type: in vivo
Description: When strawberry seedlings are exposed directly to low temperature conditions in winter, the seedlings enter dormancy, and growth of the seedlings is stopped. Whether or not the present plant activator exerts the effect of preventing dormancy was evaluated.
Specific ketol fatty acid (I) aqueous solutions [concentration: 10 μM, 100 μM, and 0 μM (control)] were applied through spraying to strawberry seedlings on August 27 (at day 0), September 3, and September 8. […] In the control group, no flower bud formation was observed.
At the one hundred and eighth day, percent dormancy (percentage of dormant plants—which are plants in which growth of small leaf buds with markings is not observed 15 days after a marking was applied to the leaf buds—with respect to the entirety of the test plants) was measured. As a result, in the control group, dormancy of the entire plants was observed.

[8] = system: Oryza sativa L.; assay: Growth controlling effect on Oryza sativa L. in paddy field (spraying); assay type: in vivo
Description: (2) Seedlings of Oryza sativa L. were grown in a seedbed in a manner similar to that described in (1), except that the seedlings were immersed in ion-exchange water at 10° C. for 15 days, without application of specific ketol fatty acid (I) described above in (1). Subsequently, the resultant seedlings which had been divided into five groups, each group containing three subgroups (only control group containing four subgroups) and each subgroup containing 16 seedlings, were exposed to the outside environment. Immediately after this exposure, spraying of specific ketol fatty acid (I) was carried out (0 ppm for a first group (control group), 25 ppm for second and third groups, 50 ppm for fourth and fifth groups). Thirty days after the spraying, the seedlings were planted in a paddy field, and additional spraying of specific ketol fatty acid (I) (25 ppm) was carried out for two groups; i.e., the third group (total amount of the acid (I): 25+25 ppm) and the fifth group (total amount of the acid (I): 50+25 ppm). Subsequently, the seedlings of the Oryza sativa L. were grown in the paddy field by means of a customary method. Forty-one days after the above planting, in each group, the plant height and the number of stems per plant (at a section at which four seedlings were planted) were measured, and then averaged.

[9] = fifth group: 50+25 ppm sprayed, 41 days after planting
[10] = fourth group: 50 ppm sprayed, 41 days after planting
[11] = second group: 25 ppm sprayed, 41 days after planting
[12] = third group: 25+25 ppm sprayed, 41 days after planting

CC/C=C\C/C=C\CC(=O)C(O)CCCCCCCC(=O)O (stereo not drawn) [specific ketol fatty acid (I), 9-hydroxy-10-oxo-12(Z),15(Z)-octadecadienoic acid]
number of leaves [1]: increased | plant width [1]: increased | leave size [2]: growth of the leaves is promoted | average of the carpophores per piece ([3]; 3 μM sprayed): 0.17 | average of the carpophores per piece ([3]; 30 μM sprayed): 1.0 | average of the carpophores per piece ([3]; 100 μM sprayed): 1.0 | leave size [4]: increased | plant width [4]: increased | degree of proliferation of the hyphae (average diameter on plate) [5]: dependent on the concentration | plant height [6]: increased | size of leaves [6]: increased | formation of flower buds ([7]; 10 μM and 100 μM aqueous solutions sprayed three times, cultured outdoors): flower bud formation proceeded, and the number of flowers increased | percent dormancy ([7]; 10 μM and 100 μM sprayed, at the one hundred and eighth day, FIG. 14): dormancy of strawberry was prevented | dormancy preventive effect, low vs high concentration ([7]; 10 μm vs 100 μM, FIG. 14): more significant in the group in which the specific ketol fatty acid (I) of low concentration (10 μm) was applied | plant height, difference between groups incl. control ([8]; 25 to 50+25 ppm, 41 days after planting): significant difference was not observed | number of stems per plant greater than control group ([8]; each of the second through fifth groups): about 10% | number of stems per plant [8, 9]: 37 | plant height [8, 9]: 58 cm | number of stems per plant [8, 10]: 38 | plant height [8, 10]: 58 cm | number of stems per plant [8, 11]: 38 | plant height [8, 11]: 57 cm | number of stems per plant [8, 12]: 39 | plant height [8, 12]: 57 cm
